Data from patent US20120041012A1, “SUBSTITUTED SPIROCYCLIC AMINES USEFUL AS ANTIDIABETIC COMPOUNDS” (priority 2009, published 2012).

Tests used:
SSTR5 [1] = target: T1, SSTR5 (Homo sapiens, UniProt P35346); experiment: SSTR5 receptor-ligand binding assay, CHO-K1 cell membranes, 125I-SRIF radioligand; set-up: expressed in transfected cells; host or cells: CHO-K1 (membranes); conditions: Table 2
Procedure: The receptor-ligand binding assays of all 5 subtype of SSTRs were performed with membranes isolated from Chinese hamster ovary (CHO)-K1 cells stably expressing the cloned human somatostatin receptors in 96-well format as previous reported.
The stable cell lines for SSTR1-SSTR5 were developed by stably transfecting with DNA for all five SSTRs using Lipofectamine. […] The assay buffer consisted of 50 mM TrisHCl (pH 7.8) with 1 mM EGTA, 5 mM MgCl2, leupeptin (10 μg/mL), pepstatin (10 μg/mL), bacitracin (200 μg/mL), and aprotinin (0.5 μg/mL). CHO-K1 cell membranes, radiolabeled somatostatin, and unlabeled test compounds were resuspended or diluted in this assay buffer. Unlabeled test compounds were examined over a range of concentrations from 0.01 nM to 10,000 nM.

SSTR5 [2] = target: T1, SSTR5; experiment: Functional assay of SSTR5 mediated cyclic AMP production in SSTR5 expressing CHO cells; type: cell-based, human or mouse; conditions: Table 2; FSK plus SS-28; read-out: SSTR5 (cAMP) IC50

T1 sequence (P35346 whole entry): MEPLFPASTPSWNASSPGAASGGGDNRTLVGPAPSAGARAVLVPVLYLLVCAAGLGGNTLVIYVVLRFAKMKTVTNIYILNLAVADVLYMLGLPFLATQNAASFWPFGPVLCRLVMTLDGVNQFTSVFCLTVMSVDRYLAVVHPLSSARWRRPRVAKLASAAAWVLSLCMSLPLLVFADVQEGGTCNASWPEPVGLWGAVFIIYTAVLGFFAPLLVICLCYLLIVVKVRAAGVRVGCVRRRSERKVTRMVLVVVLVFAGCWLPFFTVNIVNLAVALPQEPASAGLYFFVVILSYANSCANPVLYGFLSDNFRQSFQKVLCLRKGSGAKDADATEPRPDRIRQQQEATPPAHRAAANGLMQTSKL

Compound	Ki (SSTR5 [1]) [nM]	IC50 (SSTR5 [2]) [nM]
CCOc1cc(CN2CCC3(CC2)CNC(=O)C3)cc(OCC)c1-c1ccc(F)cc1 [Example 1, 8-[(2,6-diethoxy-4′-fluorobiphenyl-4-yl)methyl]-2,8-diazaspiro[4.5]decan-3-one]	21	52
CCOc1cc(CN2CCC3(CC2)CC(=O)N(c2ccc(C(N)=O)cc2)C3)cc(OCC)c1-c1ccc(F)cc1 [Example 3, 4-{8-[(2,6-diethoxy-4′-fluorobiphenyl-4-yl)methyl]-3-oxo-2,8-diazaspiro[4.5]dec-2-yl}benzamide trifluoromethyl acetate]	8.7	33
CCOc1cc(CN2CCC3(CC2)CC(=O)N(c2ccc(C(=O)O)cc2)C3)cc(OCC)c1Br [Example 5]	7.5	3.9
CCOc1cc(CN2CCC3(CC2)CC(=O)N(c2ccc(-c4noc(=O)[nH]4)cc2)C3)cc(OCC)c1-c1ccc(F)cc1 [Example 6, 8-[(2,6-diethoxy-4′-fluorobiphenyl-4-yl)methyl]-2-[4-(5-oxo-4,5-dihydro-1,2,4-oxadiazol-3-yl)phenyl]-2,8-diazaspiro[4.5]decan-3-one]	1	1.8
CCOc1cc(CN2CCC3(CC2)CC(=O)N(c2ccc(-c4nnn[nH]4)cc2)C3)cc(OCC)c1-c1ccc(F)cc1 [Example 7, 8-[(2,6-diethoxy-4′-fluorobiphenyl-4-yl)methyl]-2-[4-(1-H-tetrazol-5-yl)phenyl]-2,8-diazaspiro[4.5]decan-3-one trifluoromethyl acetate]	0.76	1.3
CCOc1cc(CN2CCC3(CC2)CC(=O)N(CC(=O)O)C3)cc(OCC)c1-c1ccc(F)cc1 [Example 8, {8-[(2,6-diethoxy-4′-fluorobiphenyl-4-yl)methyl]-3-oxo-2,8-diazaspiro[4.5]dec-2-yl}acetic acid trifluoromethyl acetate]	190	159
CCOc1cc(CN2CCC3(CC2)CC(=O)N(CCO)C3)cc(OCC)c1-c1ccc(F)cc1 [Example 9, 8-[(2,6-diethoxy-4′-fluorobiphenyl-4-yl)methyl]-2-(2-hydroxyethyl)-2,8-diazaspiro[4.5]decan-3-one trifluoromethyl acetate]	71	159
CCOc1cc(CN2CCC3(CC2)CC(=O)N(CCCC(=O)O)C3)cc(OCC)c1-c1ccc(F)cc1 [Example 23]	53	44
CCOc1cc(CN2CCC3(CC2)CC(=O)N(c2ccc(C(=O)O)cc2)C3)cc(OCC)c1-c1ccc(C(F)(F)F)cc1 [Example 35]	0.86	0.62
CCOc1cc(CN2CCC3(CC2)CC(=O)N(c2ccc(C(=O)O)cc2)C3)cc(OCC)c1-c1ccc(OC(F)(F)F)cc1 [Example 37]	0.485	0.6
CCOc1cc(CN2CCC3(CC2)CC(=O)N(c2ccc(C(=O)O)cc2)C3)cc(OCC)c1-c1cc(F)ccc1F [Example 44]	1.55	0.28
CCOc1cc(CN2CCC3(CC2)CC(=O)N(c2ccc(C(=O)O)cc2)C3)cc(OCC)c1-c1ccc(F)c(F)c1F [Example 45]	0.84	1.5
CCOc1cc(CN2CCC3(CC2)CC(=O)N(c2ccc(-c4n[nH]c(=O)o4)cc2)C3)cc(OCC)c1-c1ccc(F)cc1 [Example 49]	8.9	34
CCOc1cc(CN2CCC3(CC2)CC(=O)N(Cc2cccc(C(=O)O)c2)C3)cc(OCC)c1-c1ccc(F)cc1 [Example 52]	67	21
CCOc1cc(CN2CCC3(CC2)CC(=O)N(Cc2ccc(F)cc2)C3)cc(OCC)c1-c1ccc(F)cc1 [Example 53]	3.9	8.6
CCOc1cc(CN2CCC3(CC2)CC(=O)N(c2cncc(C(=O)O)c2)C3)cc(OCC)c1-c1ccc(F)cc1 [Example 57]	10	3.6
CCOc1cc(CN2CCC3(CC2)CC(=O)N(c2cccc(-c4nnn[nH]4)c2)C3)cc(OCC)c1-c1ccc(F)cc1 [Example 59]	3.6	4.7

Compound	Ki (SSTR5 [1]) [nM]	IC50 (SSTR5 [2]) [nM]
CCOc1cc(CN2CCC3(CC2)CC(=O)N(c2cccc(C(N)=O)c2)C3)cc(OCC)c1-c1ccc(F)cc1 [Example 60]	4.1	16
CCOc1cc(CN2CCC3(CC2)CC(=O)N(c2ccccc2S(C)(=O)=O)C3)cc(OCC)c1-c1ccc(F)cc1 [Example 61]	2	13
CCOc1cc(CN2CCC3(CC2)CC(=O)N(c2ccc(C(=O)O)cc2)C3)cc(OCC)c1-c1ncc(F)cc1F [Example 65]	4.5	3.6
O=C(O)c1ccc(N2CC3(CCN(Cc4cc(OC5CC5)c(-c5ncc(F)cc5F)c(OC5CC5)c4)CC3)CC2=O)cc1 [Example 66]	4.5	1.8
CCOc1cc(CN2CCC3(CC2)CC(=O)N(c2ccc(O)nc2)C3)cc(OCC)c1-c1ccc(F)cc1 [Example 74]	3.1	3.1
CCOc1cc(CN2CCC3(CC2)CC(=O)N(c2cncc(O)c2)C3)cc(OCC)c1-c1ccc(F)cc1 [Example 81]	3.7	7.9
CCOc1cc(CN2CCC3(CC2)CC(=O)N(c2ccc(C(=O)O)cn2)C3)cc(OCC)c1-c1ccc(F)cc1 [Example 84]	7.7	4.7
CCOc1cc(CN2CCC3(CC2)CC(=O)N(c2ccc(C(=O)O)nc2)C3)cc(OCC)c1-c1ccc(F)cc1 [Example 85]	5.27	6.17
CCOc1cc(CN2CCC3(CC2)CC(=O)N(c2nccc(O)n2)C3)cc(OCC)c1-c1ccc(F)cc1 [Example 87]	337	64
CCOc1ccc(-c2ccc(F)cc2F)c(CN2CCC3(CC2)CC(=O)N(c2ccc(C(=O)O)cc2)C3)c1 [Example 94]	11	7.3
CCOc1ccc(-c2ccc(F)c(F)c2F)c(CN2CCC3(CC2)CC(=O)N(c2ccc(C(=O)O)cc2)C3)c1 [Example 97]	7.5	1.8
CCOc1cc(CN2CCC3(CC2)CC(=O)N(c2ccc(C(=O)O)cc2)C3)cc(-c2ccc(F)cc2F)c1 [Example 107]	40	36
CCOc1cc(CN2CCC3(CC2)CC(=O)N(c2ccc(C(=O)O)cc2)C3)cc(OCC)c1OCC [Example 148]	157	82
CC(C)Oc1cc(CN2CCC3(CC2)CC(=O)N(c2ccc(C(=O)O)cc2)C3)cc(OC(C)C)c1C#N [Example 152]	14	15
CCOc1cc(CN2CCC3(CC2)CC(=O)N(c2ccc(C(=O)O)cc2)C3)cc(OCC)c1OCC(F)(F)F [Example 153]	55	42
CCOc1cc(CN2CCC3(CC2)CC(=O)N(c2ccc(C(=O)O)cc2)C3)ccc1Cl [Example 159]	130	61
O=C(O)c1ccc(N2CC3(CCN(Cc4cc(O)c(-c5ccc(F)cc5)c(O)c4)CC3)CC2=O)cc1 [Example 162]	1600	> 1000
